Measurements from patent US11596620B2, “Formulations with reduced oxidation” (Genentech, Inc., priority 2013, dated 2023).

Legend:
[1] = Photosensitivity screening assay (H2O2 by Amplex Ultra Red after light exposure); format: physicochemical; conditions: 1 mM in 20 mM histidine acetate pH 5.5, four hours of light at 250 W/m^2
Protocol: As a screening tool, antioxidant candidates were exposed to light for four hours at 250 W/m^2 and the resulting H2O2 formation was quantified by the Amplexassay. Specifically, antioxidants were prepared to 1 mM in 20 mM histidine acetate buffer at pH 5.5. The 1 mM antioxidant solutions were aliquoted into glass vials (2 mL/glass vial) and exposed to four hours of light at 250 W/m^2 in an Atlas SunTest CPS+ Xenon Test Instrument (Chicago, Ill.). Total UV dose was 90 watt-hours/square meter and total visible dose was 0.22 million lux hours over the 4-hour period. Control vials were wrapped in aluminum foil and treated similarly. The amount of hydrogen peroxide generated after exposure to light was measured using the Amplex® Ultra Red Assay (Invitrogen, Carlsbad, Calif.) following the manufacturer's recommended procedure. On addition of horseradish peroxidase (HRP), the dye reacted 1:1 stoichiometrically with H2O2, resulting in the production of fluorescent oxidation product resorufin. In this study, fluorescence readings were obtained using a Spectra Max M2 Micro-plate Reader (Molecular Devices, Sunnyvale, Calif.) with excitation and emission set at 560 nm and 590 nm, respectively. Final H2O2 concentrations were determined using a standard curve ranging from 0 μm to 20 μm.

[2] = Cyclic voltammetry (CV) screening assay, oxidation potential; format: physicochemical
Protocol: The oxidation/reduction characteristics of the compounds were investigated. Several compounds, including L-Trp and derivatives, were evaluated for the protection of Trp oxidation in proteins using cyclic voltammetry (CV) and rank ordered based on their oxidation potentials (Table 2). Specifically, the candidate antioxidants were dissolved in deionized water and then added to a 0.2 M lithium perchlorate electrolyte solution. […] Solutions were scanned from −0.10 V to +1.50 V at a scan rate of either 100 or 500 mV/sec. The analytical cell was purged for four minutes with nitrogen before scanning of each antioxidant solution. The input was a linear scan of the potential of a working electrode, and the output was measurement of the resulting current. […] Redox reactions were characterized by sharp increases or decreases in current (peaks). The potential at which an oxidation reaction occurred was referred to as the anodic peak potential (or oxidation potential), and the potential at which a reduction occurred was referred to as is the cathodic peak (or reduction) potential.

mAb1 [3] = assay: mAb1 Fenton stress study (H2O2 + Fe), RP-HPLC; format: physicochemical, human; conditions: 10 ppm H2O2 and 0.2 mM Fe(III), 40° C. for 3 hours; antioxidant 1 mM
Protocol: Antioxidants were added at a final concentration of 1 mM. […] After incubation, each reaction was quenched by addition of 100 mM L-Met and then prepared for analysis by reverse-phase HPLC as described above.
The Fenton reaction, using a mixture of H2O2 and Fe ions, generates oxidation through a metal catalyzed, hydroxyl radical reaction (Prousek et al., Pure and Applied Chemistry 79(12):2325-2338 (2007)). This reaction generated Fab, i.e. tryptophan, oxidation in mAb1. The reaction was also carried out in the presence of select antioxidants that were useful against both AAPH and light induced oxidation as reported above. Data related to the antioxidant properties against Fenton mediated reaction were analyzed using the RP-HPLC assay as described above. The Fenton reaction used 10 ppm of H2O2 and 0.2 mM of Fe(III). The reaction was incubated at 40° C. for 3 hours, quenched with 100 mM L-Met and analyzed using RP-HPLC after papain digest. All samples were the average of three separate vials, and mAb1 control (Ref Mat) was one vial with five independent injections on the HPLC. […] In regards to protection against Fc oxidation, the tested excipients (other than salicylic acid) performed slightly better than L-Trp.

mAb1 [4] = assay: Ambient light exposure of 50 mg/mL mAb1 formulations containing L-Trp (Amplex assay, RP-HPLC); format: physicochemical, human
From the text: While confirming the photosensitivity of free L-Trp under ICH light conditions, the effect of ambient light that was typically seen in laboratories was studied. Measurements using a DLM1 digital light meter in various labs indicated an average of 300 lux on a lab benchtop (with white fluorescent lighting), an average of 3000 lux in a laminar flow hood (with white fluorescent lighting) and about 10000 lux for a windowsill exposed to southeast sunlight. […] Peroxide production increased with both luminosity (300, 3000, and 10000 lux) and time (1, 3, and 7 days). […] These levels of light exposure and time were determined to be pharmaceutically relevant for drug substance handling under ambient light and temperature before fill/finish operations and potentially while inspecting drug product vials.

[5] = H2O2 generation by free L-Trp upon light exposure, Amplex assay; format: physicochemical
Protocol: It was previously reported that L-Trp produced H2O2 via superoxide ion and in a sub-stoichiometric fashion while antibodies under similar conditions were producing catalytic amounts (Wentworth et al., Science 293(5536):1806-11 (2001); McCormick et al., Journal of the American Chemical Society 100:312-313 (1978)). To test the susceptibility of free L-Trp under pharmaceutically relevant conditions, such as under both ICH and ambient light conditions, formulations comprising 0.32 mM to 7.5 mM of L-Trp were exposed for 3 hours at 250 W/m^2 UV light and about 150 k lux visible light. Samples were taken and analyzed immediately via the Amplex assay to detect the amount of H2O2 generated under these conditions. […] When L-Trp was incubated with a combination of 50 mM NaN3 and 150 U superoxide dismutase (SOD) or SOD alone, significant amounts of H2O2 were still detected in the samples not containing NaN3.

N[C@@H](Cc1c[nH]c2ccccc12)C(=O)O [L-Trp, L-tryptophan]
(H2O2 produced by Compound)/(H2O2 produced by L-Trp) [1]: 1 | Oxidation Potential ([2]; anodic peak potential, glassy carbon working electrode, 0.2M lithium perchlorate): 0.938 V vs Ag/AgCl | Oxidation Potential ([2]; cyclic voltammetry, 0.2 M lithium perchlorate): 0.938 V vs Ag/AgCl | Protection of Fab oxidation with respect to the no excipient case (mAb1 [3]): about 25% | Heavy chain Fab oxidation (W53) under ambient light, in words (mAb1 [4]; 50 mg/mL mAb1 with L-Trp, increasing luminosity): increased heavy chain Fab oxidation | % Fc oxidation in mAb1 (mAb1 [4]; 300 lux, 50 mg/mL mAb1 with L-Trp): 5% | % Fc oxidation in mAb1 (mAb1 [4]; 10000 lux, 50 mg/mL mAb1 with L-Trp): 40% | Hydrogen peroxide production under ambient light (mAb1 [4]; L-Trp in formulation buffers containing 50 mg/mL mAb1, 300, 3000, 10000 lux, 1, 3, 7 days): micromolar range | H2O2 generated upon light exposure ([5]; 0.32 mM to 7.5 mM L-Trp, 3 hours at 250 W/m^2 UV light and about 150 k lux visible light): large quantity of H2O2 | H2O2 generation in the presence of 50 mM sodium azide ([5]; 3 hours at 250 W/m^2 UV light, 50 mM sodium azide): reduced greatly
